Experimental data from the NIST ThermoML archive (doi:10.1016/j.fluid.2016.08.015).
± gives the expanded uncertainty stated by the source.

Experiments:
[1] = Liquid; for mass density: 293.15 K, 101.33 kPa, Vibrating tube method; for vapor or sublimation pressure: 298 K, Gas chromatography
[2] = refractive index (Na D-line) (dimensionless); conditions: 293.15 K; 101.33 kPa; Liquid; Standard Abbe refractometry

mass density [1] [kg/m3]	vapor or sublimation pressure [1] [kPa]	refractive index [2]	SMILES
1798 ± 1	2.57 ± 0.27	1.275 ± 0.001	FC(F)(F)C(F)(F)C(F)(F)C(F)(F)C(F)(F)C(F)(F)C(F)(F)C(F)(F)C(F)(F)F [eicosafluorononane]
1717 ± 1	10.12 ± 0.79	1.261 ± 0.001	FC(F)(F)C(F)(F)C(F)(F)C(F)(F)C(F)(F)C(F)(F)C(F)(F)F [hexadecafluoroheptane]
